According to US8143307B2, “Benzothiophen-2-carbonylguanidine derivatives, preparation thereof, and pharmaceutical composition containing the same” (Korea Research Institute of Chemical Technology, priority 2004, dated 2012):

How the values were obtained:
[1] = tested on: isolated ischemic rat heart; test: Cardioprotective effect in isolated ischemic rat heart model (Langendorff); conditions: 10 μM, 30 min global ischemia, 30 min reperfusion
Experimental: Male rats (300 450 g, the Korea Research Institute of Chemical Technology, Experimental Animal Lab) were anesthetized by intraperitoneal injection with sodium pentobarbital at a dose of 100 mg/kg and were intravenously administered with heparine at a dose of 1000 U/kg, followed by the excision of the heart. In detail, a tracheotomy was performed and a tracheal cannula (PE 240) was inserted into the trachea for subsequent artificial ventilation with room air using a rodent ventilator. […] A catheter tip manometer connected to a latex balloon filled with a mixture of ethanol and distilled water (1:1 v/v) was inserted via an incision in the left atrium into the left ventricle, and the intraventricular pressure thereof transmitted to the latex balloon was measured isovolumetrically with a transducer and recorded on a recording system (Linearcorder mark 8 WR 3500) with the aid of an amplifier (Plugsys bridge amplifier). After stabilizing the heart for 15 min, the balloon volume was adjusted to create a left ventricular end-diastolic pressure (LVEDP) of 5 mmHg during the initial baseline period. The volume of the balloon was maintained until the end of the experiment. Baseline heart contraction function, spontaneous heart rate (HR) and coronary flow (CF) were determined from the left ventricular contraction interval. The left ventricular developed pressure (LVDP), which is regarded as an index of contractile function of the isolated heart, was calculated by subtracting left ventricular end-diastolic pressure (LVEDP) from left ventricular peak systolic pressure (LVSP). In contrast to the heart in the body, the Langendorff heart cannot be measured for cardiac output and thus, RPP (rate-pressure product), which is an important indirect indicator for cardiac performance, was calculated by multiplying heart rate (HR) by LVDP. Throughout the experiment, the temperature of the heart was maintained constant by […] in a 37° C. physiological solution to which 95% O2/5% CO2 was continuously supplied. The heart thus stabilized was perfursed for 10 min with a solution of the compounds of the invention or control drugs in DMSO (dimethylsulfoxide) diluted with HBS (final DMSO conc. 0.04%), or with the solvent only (a negative control; 0.04% DMSO) and then measured again for contractile function, heart rate (HR) and coronary flow (CF). The supply of perfusates was completely stopped for 30 min in order to induce global ischemia in the heart, followed by reperfusion for 30 min. The indices (LVDP, HR, LVEDP, and CF) were measured again. After the reperfusion, the total level of lactate dehydrogenase (LDH) in the reperfusates was measured using a kit and taken as an index of ischemic myocardial injury. A negative control group was treated with the solvent only while cariporide was used as a positive control.

[2] = tested on: cortical neurons; test: Neuroprotective effect against glutamate-induced neurotoxicity; format: cell-based, rat; conditions: for TUNEL-Positive Cells (apoptosis): 12 hours after glutamate treatment; for Free LDH Levels (necrosis): 20 hours after glutamate treatment
Experimental: Cortical neurons were isolated from the brain of 14-day-old fetal rats and cultured in Eagle's MEM (Minimum essential medium) at 37° C. in a 5% CO2 atmosphere. On day 3 or 4 of culturing, 10 μM cytosine-β-arabinofuranoside (AraC) was added to the culture medium to prevent the overgrowth of glial cells. […] On day 7˜9 of culturing, the cells were induced to cellular toxicity by treatment with 100 μM glutamate in combination with the compounds of interest or vehicle alone as a negative control. Necrosis was determined by released LDH (Lactate dehydrogenase) levels at 20 hours after glutamate treatment. For the analysis of apoptosis, the count of TUNEL (Terminal deoxynucleotidyl transferase UTP nick end labeling)-positive cells was measured at 12 hours after glutamate treatment.

[3] = tested on: in vivo ischemic rat heart model; test: Cardioprotective effect on in vivo ischemic rat heart model (coronary occlusion/reperfusion, infarct size); conditions: 45 min occlusion, 90 min reperfusion
Experimental: The cardioprotective effect of the benzothiophen-2-carbonylguanidine derivatives according to the present invention in in vivo ischemic hearts was judged with regard to their antischemic effects (myocardiac infarction reduction) on rats as follows.
Each male rat (300˜450 g, the Korea Research Institute of Chemical Technology, Experimental Animal Lab) was anesthetized by intraperitoneal injection with sodium pentobarbital at a dose of 75 mg/kg. Tracheotomy was performed and a tube was inserted into the trachea for subsequent artificial ventilation with a stroke volume of 10 ml/kg and a respiratory rate of 60 breaths/min. The femoral vein and the femoral artery were cannulated for the administration of the compounds and for the measurement of blood pressures, respectively. Meanwhile, the body temperature of the rats, an important factor to influence experimental results in the ischemic myocardiac injury model, was maintained constant at 37° C. using a homeothermic blanket control unit, with a body temperature-monitoring probe inserted into the rectum. Subsequently, rats were continuously measured for mean arterial blood pressure and heart rate HR throughout the experimental time period using a Statham P23XL pressure transducer (Grass Ins., Mass., USA) and an ECG/RATE Coupler (Hugo Sachs Electronic, Germany), respectively, with all continuous changes thereof recorded by Graphtec Linearcorder WR 3310 (Hugo Sachs Electronic).
The left coronary artery was occluded according to Selye H.'s method. In detail, after the chest of each rat was partially opened by left thoracotomy, the middle finger of the left hand was pressed against the right side of the chest of the rat to thrust out the heart which was then slightly fixed with the forefinger and the thumb of the same hand. Then, immediately after the left anterior descending coronary artery (LAD) was sutured with a 5-0 silk ligature, the heart was repositioned back in the thoracic cavity with both ends of the suture positioned outside. The ends of the suture were threaded through a PE tube (PE100, 2.5 cm) and allowed to stand for 20 min for stabilization. Through the cannula inserted into the femoral vein, a vehicle or the compounds of the invention were administered and 30 min was needed for sufficient effects of the administered compounds. Cariporide was used as a control. The ends of the suture threaded through the PE tube were pulled taut with hemostatic forceps to vertically press the PE tube against the coronary artery. After occlusion for 45 min, the hemostatic forceps were removed and reperfusion was conducted for 90 min.
The coronary artery was reoccluded in the same manner as described above, followed by the intravenous injection of 2 ml of 1% Evans blue. The intravenous injection of an excess of pentobarbital killed the rats, from which the hearts were then excised. The left ventricle was removed alone from the isolated heart and transected from the cardiac apex into 5 or 6 slices. Each slice was weighed. The image of each of the heart slices was captured using a Hi-scope, a compact vision system, and analyzed for blue-stained normal areas and non-stained areas with an image analyzing program (Image Pro Plus). In each slice, the area at risk (AAR) was calculated by multiplying the ratio of the non-stained area to the total area of the slice with the weight of the slice. Sum of the individual area at risk (AAR) for each slice was divided by the total weight of the left ventricle to obtain AAR (%) according to the following mathmatical formula 1.
Separately, the heat slices were incubated in 1%. 2,3,5-triphenyltetrazolium chloride (TTC) phosphate buffer (pH 7.4), 37° C., for 15 min and fixed in 10% formalin for 20˜24 hours. In the normal area of the tissue, 2,3,5-triphenyltetrazolium chloride was reduced by the myocardial dehydrogenase in the presence of the cofactor NADH to form formazan dye, which appeared as a brick-red color. […]

CS(=O)(=O)O.N#Cc1cccc2sc(C(=O)N=C(N)N)cc12 [Example 42, (4-Cyanobenzothiophene-2-Carbonyl)Guanidine Methanesulfonate]
LDH (free LDH level upon reperfusion) [1]: 14.7 u/g
LVEDP (left ventricular end-diastolic pressure) [1]: 6.0 mmHg
TUNEL-Positive Cells (apoptosis) ([2]; 0.1 μM with 100 μM glutamate): 28.6
Free LDH Levels (necrosis) ([2]; 0.1 μM with 100 μM glutamate): 58.6
TUNEL-Positive Cells (apoptosis) ([2]; 1.0 μM with 100 μM glutamate): 23.9
Free LDH Levels (necrosis) ([2]; 1.0 μM with 100 μM glutamate): 43.2
TUNEL-Positive Cells (apoptosis) ([2]; 10 μM with 100 μM glutamate): 18.8
Free LDH Levels (necrosis) ([2]; 10 μM with 100 μM glutamate): 38.8
TUNEL-Positive Cells (apoptosis) ([2]; 100 μM with 100 μM glutamate): 12.6
Free LDH Levels (necrosis) ([2]; 100 μM with 100 μM glutamate): 32.3
necrosis and apoptosis of neurons (glutamate-induced neurotoxicity) ([2]; 0.1-100 μM with 100 μM glutamate): inhibited the necrosis and apoptosis of neurons in dose-dependent manners
Myocardiac infarction rate (IS/AAR, %) ([3]; 0.1 mg/kg intravenous): 36.9%
Myocardiac infarction rate (IS/AAR, %) ([3]; 0.3 mg/kg intravenous): 34.4%
